Earlier results in paper PMC11070408, “Bifunctional octadentate pseudopeptides as Zirconium-89 chelators for immuno-PET applications” (EJNMMI Radiopharmacy and Chemistry, 2024).

Parameters: method as in Sarbisheh and Salih [2020]
Conditions: ref Sarbisheh and Salih [2020]

solubility in water: poor
Compound: CC(=O)N(O)CCCCCNC(=O)CCC(=O)N(O)CCCCCNC(=O)CCC(=O)N(O)CCCCCNC(=O)CCC(=O)NCC(CNC(=O)CCC(=O)NCCCCCN(O)C(=O)CCC(=O)NCCCCCN(O)C(=O)CCC(=O)NCCCCCN(O)C(C)=O)Cc1ccc([N+](=O)[O-])cc1 [DFO2]
